Measured values: patent publication US20190002480A1, “Silane-Containing Heterocyclic Compounds and Methods of Use Thereof for the Treatment of Viral Diseases” (Merck Sharp & Dohme Corp., priority 2015, published 2019)
Where two headings read alike, the source gives them in different places.

Key:
HCV replicon GT1b_WT = experiment: Cell-based HCV replicon assay, GT1b WT; conditions: Hepatitis C virus, 72 h, read-out: GT1b_WT EC90
Method: (§1) To measure cell-based anti-HCV activity of compounds of the present invention, two complimentary assays were employed using various replicons. In the first assay (“Replicon Assay A”), replicon cells were seeded at 2000 cells/well in 384-well 384-well flat bottom tissue culture treated clear bottom plate (Corning 3707) in the presence of the test compound. Various concentrations of test compound, typically in 10 serial dilutions, were added to the assay mixture, with the starting concentration ranging from 333.3 nM to […]. The final concentration of DMSO was 0.5%. Fetal bovine serum was 5%, in the assay media. Cells were harvested on day 3 by removing media and washing the cells with a suitable wash buffer. The cells are lysed with the addition of 1× Qiagen lysis buffer (Cat #1062731). The replicon RNA level was measured using real time PCR (TaqMan® EZ RT-PCR, Applied Biosystems 403028) with the following primers and probes: […]
(§2) Cyclophilin RNA was used as endogenous control and was amplified in the same reaction as NS5B (multiplex PCR). The real-time RT-PCR reactions were run on ABI PRISM 7900HT Sequence Detection System using the following program: 50° C. for 2 minutes, 60° C. for 30 minutes, 95° C. for 5 minutes, 40 cycles of 94 C for 20 sec, 55 C for 1 minutes.
(§3) The amount of HCV replicon RNA per cell is quantified using a linear regression curve for a known nanogram (ng) amount of HCV replicon total RNA. This is established by plotting the Cycle Threshold values (Ct) from the Neo probe and primer set versus the log (ng) for each HCV replicon total RNA standard. The amount of HCV RNA for each replicon sample is calculated by taking the sample's Ct value, minus the line intercept, divided by the slope of the line. Similarly, the amount of Cyclophilin mRNA per cell is also quantified using a linear regression curve for a known nanogram (ng) amount of HCV replicon total RNA. Again, this is established by plotting the Cycle Threshold values (Ct) from the Cyclophilin probe and primer set versus the log (ng) for each HCV replicon total RNA standard.
(§4) In an alternate assay (“Replicon Assay B”), 1000 cells were seeded per well in a 384-well collagen coated black plate from Greiner bio-one (Cat #781946) in 5% FBS. Inhibitors of this invention were added at 24 h post-seeding, and the plates were incubated for 3 days. Cells were subsequently lysed with Qiagen lysis buffer (Cat #1062731) to extract the RNA. HCV replicon RNA level was measured by real-time PCR using the RNA-to-CT kit from Applied Biosystem (Cat #4392656) and genotype-specific primers and probes. The amplicon was located within NS5B. The sequence of the PCR primers are as follows: 5B.2F, ATGGACAGGCGCCCTGA (SEQ. ID NO. 1); 5B.2R, […] (SEQ. ID NO. 2); the probe sequence was FAM-labeled CACGCCATGCGCTGCGG (SEQ. ID NO. 3). To detect genotype 1A the primer 1A F, TGCGGAACCGGTGAGTACA and 1A R, […] were used; the probe sequence was FAM-[…].
(§5) The real-time RT-PCR reactions were run on ABI PRISM 7900HT or Viia7 Sequence Detection System using the following program: 48° C. for 30 minutes, 95 C for 10 minutes, 40 cycles of 95 C for 15 sec, 60 C for 1 minutes. The 50% effective concentration (EC50) was the drug concentration necessary to achieve an increase in the cycle threshold (CT) of 1 over the projected baseline CT. The EC90 was the drug concentration necessary to achieve an increase in CT of 3.2 over the projected baseline CT.

HCV replicon GT3a_Y93H = experiment: Cell-based HCV replicon assay, GT3a Y93H; conditions: Hepatitis C virus, 72 h, read-out: GT3a_Y93H EC90
Method: as §1, §2, §3, §4, §5

HCV replicon GT1a_Q30R = experiment: Cell-based HCV replicon assay, GT1a Q30R; conditions: Hepatitis C virus, 72 h, read-out: GT1a_Q30R EC90
Method: as §1, §2, §3, §4, §5

HCV replicon GT2b_31M = experiment: Cell-based HCV replicon assay, GT2b 31M; conditions: Hepatitis C virus, 72 h, read-out: GT2b_31M EC90
Method: as §1, §2, §3, §4, §5

HCV replicon GT6 = experiment: Cell-based HCV replicon assay, GT6; conditions: Hepatitis C virus, GT6, 72 h; replicon RNA level by real-time PCR, 3 days
Method: as §1, §2, §3, §4, §5

HCV replicon GT5 = experiment: Cell-based HCV replicon assay, GT5; conditions: Hepatitis C virus, GT5, 72 h; replicon RNA level by real-time PCR, 3 days
Method: as §1, §2, §3, §4, §5

HCV replicon GT2a = experiment: Cell-based HCV replicon assay, GT2a; conditions: Hepatitis C virus, 72 h, read-out: GT2a EC90
Method: as §1, §2, §3, §4, §5

HCV replicon GT4 = experiment: Cell-based HCV replicon assay, GT4; conditions: Hepatitis C virus, GT4, 72 h; replicon RNA level by real-time PCR, 3 days
Method: as §1, §2, §3, §4, §5

HCV replicon GT1a_Y93H = experiment: Cell-based HCV replicon assay, GT1a Y93H; conditions: Hepatitis C virus, 72 h, read-out: GT1a_Y93H EC90
Method: as §1, §2, §3, §4, §5

HCV replicon GT3a_WT = experiment: Cell-based HCV replicon assay, GT3a WT; conditions: Hepatitis C virus, 72 h; replicon RNA level by real-time PCR, 3 days
Method: as §1, §2, §3, §4, §5

HCV replicon GT1a_L31V = experiment: Cell-based HCV replicon assay, GT1a L31V; conditions: Hepatitis C virus, 72 h, read-out: GT1a_L31V EC90
Method: as §1, §2, §3, §4, §5

HCV replicon GT1a_M28V = experiment: Cell-based HCV replicon assay, GT1a M28V; conditions: Hepatitis C virus, 72 h, read-out: GT1a_M28V EC90
Method: as §1
(§6) The amount of HCV replicon RNA per cell is quantified using a linear regression curve for a known nanogram (ng) amount of HCV replicon total RNA. […] The amount of HCV RNA for each replicon sample is calculated by taking the sample's Ct value, minus the line intercept, divided by the slope of the line. Similarly, the amount of Cyclophilin mRNA per cell is also quantified using a linear regression curve for a known nanogram (ng) amount of HCV replicon total RNA. […]

HCV replicon Gt1a_WT = experiment: Cell-based HCV replicon assay, GT1a WT; conditions: Hepatitis C virus, 72 h; replicon RNA level by real-time PCR, 3 days
Method: as §1, §6

[1] = replicon RNA level by real-time PCR, 3 days

SMILES	EC90 (HCV replicon GT1b_WT)	EC90 (HCV replicon GT3a_Y93H)	EC90 (HCV replicon GT1a_Q30R)	EC90 (HCV replicon GT2b_31M)	EC90 (HCV replicon GT6)	EC90 (HCV replicon GT5)	EC90 (HCV replicon GT2a)	EC90 (HCV replicon GT4)	EC90 (HCV replicon GT1a_Y93H)	EC90 (HCV replicon GT3a_WT)	EC90 (HCV replicon GT1a_L31V)	EC90 (HCV replicon GT1b_WT; [1])	EC90 (HCV replicon GT1a_M28V)	EC90 (HCV replicon GT2a; [1])	EC90 (HCV replicon Gt1a_WT)
COC(=O)N[C@H](C(=O)N1CCC[C@H]1c1ncc(-c2cc(F)c3c(c2)O[C@@H](c2cnc(C4CC4)s2)n2c-3cc3cc(-c4cnc([C@@H]5C[Si](C)(C)CN5C(=O)[C@@H](NC(=O)OC)[C@@H]5CCOC(C)(C)C5)[nH]4)ccc32)[nH]1)C(C)C [Compound 3]	0.001 nM	370 nM	0.008 nM	0.431 nM	0.0076 nM	0.0073 nM	0.00167 nM	0.00112 nM	0.079 nM	0.285 nM	0.0097 nM	–	–	–	–
COC(=O)N[C@H](C(=O)N1CCC[C@H]1c1ncc(-c2ccc3c(c2)cc2n3[C@H](c3cnc(C4CC4)s3)Oc3cc(-c4cnc([C@@H]5C[Si](C)(C)CN5C(=O)[C@@H](NC(=O)OC)C(C)C)[nH]4)cc(F)c3-2)[nH]1)C(C)C [Compound 6]	0.00116 nM	118 nM	0.0729 nM	3.04 nM	0.0057 nM	0.0069 nM	0.00339 nM	0.00135 nM	0.199 nM	1.32 nM	0.0599 nM	–	–	–	–
COC(=O)NC(C(=O)N1CCC[C@H]1c1ncc(-c2ccc3c(c2)cc2n3[C@H](c3cnc(C4CC4)s3)Oc3cc(-c4cnc([C@@H]5C[Si](C)(C)CN5C(=O)[C@@H](NC(=O)OC)C5CCCCC5)[nH]4)cc(F)c3-2)[nH]1)C(C)C (stereo partly drawn) [Compound 7]	0.00244 nM	82 nM	0.0039 nM	0.132 nM	0.0906 nM	0.0246 nM	0.00177 nM	0.00147 nM	0.022 nM	0.051 nM	0.0045 nM	–	–	–	–
COC(=O)NC(C(=O)N1CCC[C@H]1c1ncc(-c2ccc3c(c2)cc2n3[C@H](c3cnc(C4CC4)s3)Oc3cc(-c4cnc([C@@H]5C[Si](C)(C)CN5C(=O)[C@@H](NC(=O)OC)[C@@H]5CCOC(C)(C)C5)[nH]4)cc(F)c3-2)[nH]1)C(C)C (stereo partly drawn) [Compound 8]	–	133 nM	0.0056 nM	1.12 nM	0.0079 nM	0.0072 nM	0.00118 nM	0.00103 nM	0.271 nM	0.709 nM	0.0088 nM	–	–	–	–
COC(=O)NC(C(=O)N1CCC[C@H]1c1ncc(-c2ccc3c(c2)cc2n3[C@H](c3cnc(C4CC4)s3)Oc3cc(-c4cnc([C@@H]5C[Si](C)(C)CN5C(=O)[C@@H](NC(=O)OC)C5CCC(F)(F)CC5)[nH]4)cc(F)c3-2)[nH]1)C(C)C (stereo partly drawn) [Compound 9]	0.00108 nM	322 nM	0.0247 nM	4.24 nM	0.0109 nM	0.009 nM	0.00243 nM	0.00137 nM	0.29 nM	2.24 nM	0.026 nM	–	–	–	–
COC(=O)N[C@H](C(=O)N1CCC[C@H]1c1ncc(-c2cc(F)c3c(c2)O[C@@H](c2ccc(C4CC4)s2)n2c-3cc3cc(-c4cnc([C@@H]5C[Si](C)(C)CN5C(=O)[C@@H](NC(=O)OC)C(C)C)[nH]4)ccc32)[nH]1)C(C)C [Compound 13]	0.00118 nM	614 nM	0.0328 nM	0.933 nM	0.0108 nM	0.0061 nM	0.00338 nM	0.0015 nM	0.561 nM	0.469 nM	0.0756 nM	–	–	–	–
COC(=O)NC(C(=O)N1C[Si](C)(C)C[C@H]1c1ncc(-c2ccc3c(c2)cc2n3[C@H](c3ccc(C4CC4)s3)Oc3cc(-c4cnc([C@@H]5CCCN5C(=O)[C@@H](NC(=O)OC)C(C)C)[nH]4)cc(F)c3-2)[nH]1)C1CCOCC1 (stereo partly drawn) [Compound 14]	0.00131 nM	175 nM	0.0027 nM	0.038 nM	0.0842 nM	0.013 nM	0.0042 nM	0.00111 nM	0.02 nM	0.018 nM	0.0062 nM	–	–	–	–
COC(=O)N[C@H](C(=O)N1CCC[C@H]1c1ncc(-c2cc(F)c3c(c2)O[C@@H](c2ccc(C4CC4)s2)n2c-3cc3cc(-c4cnc([C@@H]5C[Si](C)(C)CN5C(=O)[C@@H](NC(=O)OC)[C@@H]5CCOC(C)(C)C5)[nH]4)ccc32)[nH]1)C(C)C [Compound 15]	0.00102 nM	442 nM	0.0047 nM	0.314 nM	0.0144 nM	0.0065 nM	0.0021 nM	0.00136 nM	0.185 nM	0.173 nM	0.0075 nM	–	–	–	–
COC(=O)NC(C(=O)N1C[Si](C)(C)C[C@H]1c1ncc(-c2ccc3c(c2)cc2n3[C@H](c3ccc(C4CC4)s3)Oc3cc(-c4cnc([C@@H]5CCCN5C(=O)[C@@H](NC(=O)OC)C(C)C)[nH]4)cc(F)c3-2)[nH]1)C1CCC(F)(F)CC1 (stereo partly drawn) [Compound 16]	0.00184 nM	3690 nM	0.0285 nM	2.83 nM	0.0252 nM	0.0173 nM	0.00575 nM	0.00183 nM	0.972 nM	1.68 nM	0.0507 nM	–	–	–	–
COC(=O)N[C@H](C(=O)N1CCC[C@H]1c1ncc(-c2cc(F)c3c(c2)O[C@@H](c2ccc(C4CC4)s2)n2c-3cc3cc(-c4cnc([C@@H]5C[Si](C)(C)CN5C(=O)[C@H](N)c5ccccc5)[nH]4)ccc32)[nH]1)C(C)C [Compound 17]	–	765 nM	0.896 nM	5.33 nM	0.105 nM	0.0527 nM	–	0.0124 nM	6.18 nM	3.28 nM	1.76 nM	0.00141 nM	0.00192 nM	0.0582 nM	0.00142 nM
